Experiments:
Assay type in all cases: functional
[1] = tested on: Pseudomonas aeruginosa; assay: Antimicrobial activity against Pseudomonas aeruginosa at 1 mmol after 48 hrs
[2] = tested on: Thanatephorus cucumeris; assay: Antifungal activity against Rhizoctonia solani at 1 mmol after 48 hrs relative to control
[3] = tested on: Thanatephorus cucumeris; assay: Antifungal activity against Rhizoctonia solani at 1 mmol after 48 hrs
[4] = tested on: Staphylococcus epidermidis; assay: Antimicrobial activity against Staphylococcus epidermidis at 1 mmol after 48 hrs
[5] = tested on: Candida albicans; assay: Antimicrobial activity against Candida albicans at 1 mmol after 48 hrs
[6] = tested on: Curvularia lunata; assay: Antifungal activity against Curvularia lunata at 1 mmol after 48 hrs
[7] = tested on: Staphylococcus epidermidis; assay: Antimicrobial activity against Staphylococcus epidermidis at 1 mmol after 48 hrs relative to control
[8] = tested on: Curvularia lunata; assay: Antifungal activity against Curvularia lunata at 1 mmol after 48 hrs relative to control
[9] = tested on: Candida albicans; assay: Antimicrobial activity against Candida albicans at 1 mmol after 48 hrs relative to control
[10] = tested on: Pseudomonas aeruginosa; assay: Antimicrobial activity against Pseudomonas aeruginosa at 1 mmol after 48 hrs relative to control
[11] = tested on: Pseudomonas aeruginosa; assay: Inhibition of growth of Pseudomonas aeruginosa at 0.622 mg/ml after 48 hrs relative to control
[12] = tested on: Candida albicans; assay: Antimicrobial activity against Candida albicans at 0.622 mg/ml after 48 hrs relative to control
[13] = tested on: Staphylococcus epidermidis; assay: Inhibition of growth of Staphylococcus epidermidis at 0.622 mg/ml after 48 hrs; conditions: read-out: IZ
[14] = tested on: Pseudomonas aeruginosa; assay: Inhibition of growth of Pseudomonas aeruginosa at 0.622 mg/ml after 48 hrs; conditions: read-out: IZ
[15] = tested on: Candida albicans; assay: Antimicrobial activity against Candida albicans at 0.622 mg/ml after 48 hrs; conditions: read-out: IZ
[16] = tested on: Staphylococcus epidermidis; assay: Inhibition of growth of Staphylococcus epidermidis at 0.622 mg/ml after 48 hrs relative to control
[17] = tested on: Curvularia lunata; assay: Antifungal activity against Curvularia lunata at 0.652 mg/ml after 48 hrs; conditions: read-out: IZ
[18] = tested on: Curvularia lunata; assay: Antifungal activity against Curvularia lunata at 0.652 mg/ml after 48 hrs relative to control
[19] = tested on: Thanatephorus cucumeris; assay: Antifungal activity against Rhizoctonia solani at 0.652 mg/ml after 48 hrs; conditions: read-out: IZ
[20] = tested on: Thanatephorus cucumeris; assay: Antifungal activity against Rhizoctonia solani at 0.652 mg/ml after 48 hrs relative to control

| Structure (SMILES) | inhibition zone (IZ) [1] | Inhibition [2] | inhibition zone (IZ) [3] | inhibition zone (IZ) [4] | inhibition zone (IZ) [5] | inhibition zone (IZ) [6] | Inhibition [7] | Inhibition [8] | Inhibition [9] | Inhibition [10] | inhibition at 622 µg/mL [11] | inhibition at 622 µg/mL [12] | zone of inhibition at 622 µg/mL [13] | zone of inhibition at 622 µg/mL [14] | zone of inhibition at 622 µg/mL [15] | Inhibition [16] | zone of inhibition at 652 µg/mL [17] | inhibition at 652 µg/mL [18] | zone of inhibition at 652 µg/mL [19] | inhibition at 652 µg/mL [20] |
| --- | --- | --- | --- | --- | --- | --- | --- | --- | --- | --- | --- | --- | --- | --- | --- | --- | --- | --- | --- | --- |
| Clc1ccc(-c2nn(-c3ccccc3)cc2C(c2c[nH]c3ccc(Br)cc23)c2c[nH]c3ccc(Br)cc23)cc1 | 0 cm | 17.8% | 7.4 cm | 0 cm | 0.6 cm | 7.6 cm | 0% | 15.6% | 6.7% | 0% | – | – | – | – | – | – | – | – | – | – |
| CCn1c(-c2ccccc2)c(C(c2cn(-c3ccccc3)nc2-c2ccc(Br)cc2)c2c(-c3ccccc3)n(CC)c3ccccc23)c2ccccc21 | 0 cm | 16.7% | 7.5 cm | 0.7 cm | 0 cm | 7.8 cm | 7.9% | 13.3% | 0% | 0% | – | – | – | – | – | – | – | – | – | – |
| CCn1c(-c2ccccc2)c(C(c2cn(-c3ccccc3)nc2-c2ccc(Cl)cc2)c2c(-c3ccccc3)n(CC)c3ccccc23)c2ccccc21 | 1.4 cm | 18.8% | 7.3 cm | 1.4 cm | 0.5 cm | 5.2 cm | 15.6% | 42.2% | 5.6% | 15.6% | – | – | – | – | – | – | – | – | – | – |
| COc1ccc(-c2nn(-c3ccccc3)cc2C(c2c[nH]c3ccc([N+](=O)[O-])cc23)c2c[nH]c3ccc([N+](=O)[O-])cc23)cc1 | 0 cm | 53.3% | 4.8 cm | 0 cm | 0 cm | 1.4 cm | 0% | 84.4% | 0% | 0% | – | – | – | – | – | – | – | – | – | – |
| Brc1ccc(-c2nn(-c3ccccc3)cc2C(c2c[nH]c3ccc(Br)cc23)c2c[nH]c3ccc(Br)cc23)cc1 | 1.5 cm | 81.1% | 1.7 cm | 0 cm | 2.2 cm | 0.8 cm | 0% | 91.1% | 24.4% | 16.7% | – | – | – | – | – | – | – | – | – | – |
| Brc1ccc2[nH]cc(C(c3cn(-c4ccccc4)nc3-c3ccccc3)c3c[nH]c4ccc(Br)cc34)c2c1 | 1.8 cm | 41.1% | 5.3 cm | 2.1 cm | 2.7 cm | 4.7 cm | – | 47.8% | – | – | 20% | 30% | 21 mm | 18 mm | 27 mm | ≤ 23.3% | – | – | – | – |
| COc1ccc(-c2nn(-c3ccccc3)cc2C(c2c[nH]c3ccc(Br)cc23)c2c[nH]c3ccc(Br)cc23)cc1 | 1.4 cm | – | – | 0 cm | 0 cm | – | 0% | – | 0% | 15.6% | – | – | – | – | – | – | 3 mm | 96.7% | 5 mm | 93.9% |
| O=[N+]([O-])c1ccc2[nH]cc(C(c3cn(-c4ccccc4)nc3-c3ccccc3)c3c[nH]c4ccc([N+](=O)[O-])cc34)c2c1 | 1.3 cm | 0% | 9 cm | 0 cm | 0 cm | 9 cm | 0% | 0% | 0% | 14.4% | – | – | – | – | – | – | – | – | – | – |

— ChEMBL document CHEMBL1146176, “Synthesis and anti-microbial activity of pyrazolylbisindoles--promising anti-fungal compounds” (2006)
